Measurements from paper PMC11272598, “RG7774 (Vicasinabin), an orally bioavailable cannabinoid receptor 2 (CB2R) agonist, decreases retinal vascular permeability, leukocyte adhesion, and ocular inflammation in animal models” (Frontiers in Pharmacology, 2024).

Experiments:
[1] = target: Mouse CB1R (Mus musculus, UniProt P47746); test: Mouse cAMP assay in N18TG2 cells; format: cell-based; set-up: inhibition at 0.1 µM: reference not given here; details: N18TG2, read-out: Mean ± SEM % inhibition of control, Mouse CB1R (cAMP assay)
Procedure: The effect of RG7774 on the forskolin-stimulated accumulation of cAMP was determined using the LANCE ULTRAcAMP kit (PerkinElmer Life Sciences, MA, USA), according to the manufacturer’s instructions. Briefly, N18TG2 cells preincubated for 30 min with 1-methyl-3-isobutylxanthine (1 mM) were added to 0.5 µM forskolin preincubated with or without RG7774 for 15 min. Reactions were incubated for 30 min at 37°C and Time-resolved fluorescence was measured using a Victor V Multilabel counter (PerkinElmer Life Sciences). Data were transformed into cAMP concentrations using a standard curve.

[2] = test system: Human DAGL; test: Human DAGL assay (HaCaT cells); format: biochemical; details: positive control 10 µM
Procedure: (§1) Mouse brain or human HaCaT cells (CLS Cell Lines Service, GmbH, Eppelheim, Germany) were homogenized in 50 mM Tris-HCl (pH 7.4) using a glass potter, and homogenates were centrifuged at 4°C sequentially at 800 g (10 min) and 10,000 g (30 min). The final pellet (80–200 µg) was resuspended in 50 mM Tris-HCl (pH 7.4) containing 10 mM CaCl2 and incubated at 37°C for 30 min with sn-1[^14C]-stearoyl-2-arachidonoyl-glycerol (100 µM) (ARC, MO, USA). Reactions were stopped by adding chloroform/methanol (2:1, v/v), and the organic phase was dried and fractionated by thin-layer chromatography on silica gel, as previously reported. Levels of 1[^14C]-stearoyl acid radioactivity were determined by cutting the appropriate band from the gel and analyzing using a β-scintillation counter. Mouse cells were preincubated for 15 min with RG7774 (10 µM) and added to the incubation medium. Human cells were preincubated for 15 min with 8 different concentrations of RG7774 (0.1-500 µM) and added to the incubation medium. Control experiments were carried out in the presence of the selective DAGL inhibitor, D053 (10 µM).

[3] = test system: Mouse DAGL; test: Mouse DAGL assay (brain); format: biochemical; details: positive control 10 µM
Procedure: as §1

[4] = target: T1, Human MAGL (Homo sapiens, UniProt Q99685); test: Human MAGL assay (U937 cell extracts); format: biochemical; details: positive control 100 nM
T1 construct: Mouse brain or human U937 cell extracts (ATCC, Manassas, VI, USA); host or cells: U937 cells, 100,000 g supernatant
Procedure: The final supernatant was incubated with [^3H]-2-OG (10 µM) (ARC, MO, USA) at 37°C for 30 min as previously described, and reactions were stopped with a 2:1 (v/v) mixture of chloroform/methanol. [^3H]-glycerol release in the aqueous phase was measured by scintillation counting. […] Human supernatant (100 µg) was preincubated for 15 min at RT with 8 different concentrations of RG7774 (0.1-500 µM) in the incubation medium.

[5] = target: T2, Human 5-LOX (Homo sapiens, UniProt P09917); test: Human 5-LOX assay; format: biochemical; details: positive control 100 µM
T2 construct: purchased Cayman Chemical Company #60402
Procedure: (§2) The inhibitory effects of different concentrations of RG7774 (0.1-500 µM) on the activities of human recombinant 5-LOX (Cayman Chemical Company #60402), 15-LOX (Cayman Chemical Company #10011263), and human platelet-derived 12-LOX were determined using the Biovision Lipoxygenase Activity Assay Kit (#BVN-K978-100). This kit converts the LOX substrate to an intermediate that reacted with the probe, generating a fluorescent product. The effect of RG7774 (preincubated for 15 min) at 10 µM on LOXs (5-LOX: 0.5 or 1.2 µg; 12-LOX: 20 µg; 15-LOX: 0.23 or 0.3 µg) was ascertained by adding the compounds directly to the incubation medium and the fluorescent signal, recorded at excitation/emission 500/536 nm at 30 sec intervals for 30-40 min, was directly proportional to LOX activity. […] The percentage of human 5-, 12-, and 15-LOX activity (control) was estimated from the amount of oxidized probe in the reaction using a standard curve.

[6] = target: T3, Human 12-LOX (Homo sapiens, UniProt P18054); test: Human 12-LOX assay; format: biochemical; details: positive control 100 µM
T3 construct: human platelet-derived 12-LOX; from tissue; host or cells: human platelets
Procedure: as §2

[7] = test system: Human EMT; test: Human EMT activity (HaCaT cells); format: cell-based; details: positive control 40 µM
Procedure: HaCaT cells were seeded (350,000–400,000 cell/well) in triplicate in 12-well plates and incubated for 15 min in PBS at 37°C with [^3H]-N-arachidonoylethanolamine ([^3H]-AEA) (400 nM) (ARC, MO, USA), as previously reported. Experiments were repeated at 4°C in order to subtract passive diffusion from EMT-mediated uptake. RG7774 (10 µM) was preincubated with labeled HaCaT cells for 15 min before adding directly to the incubation medium (PBS). The selective EMT inhibitor, OMDM-1 (40 µM), was used as positive control.

[8] = target: T4, Human FAAH (Homo sapiens, UniProt O00519); test: Human FAAH assay; format: biochemical; details: positive control 100 nM; read-out: Mean ± SEM % inhibition of control, Human FAAH
T4 construct: purchased Cayman Chemical Company
Procedure: (§3) Mouse brain was homogenized in 50 mM Tris-HCl (pH 7.4) using a glass potter, centrifuged at 1000 g for 10 min, and the pellet was discarded. The supernatant (50 µg) was incubated with [^14C]-AEA (10 µM) (ARC, MO, USA) at 37°C for 15 min (Tris-HCl, pH 9.0) and reactions were stopped with a 2:1 (v/v) mixture of chloroform/methanol. [^14C]-ethanolamine release in the aqueous phase was measured as previously reported. Mouse supernatants (50 µg) were preincubated with RG7774 (10 µM) for 15 min and added directly to the incubation medium. Purified human FAAH (1.7 µg; Cayman Chemical Company, MI, USA) was incubated with [^14C]-AEA (10 µM) (ARC, MO, USA) at 37°C for 15 min (pH 9.0), as previously described. […] for 15 min with 8 different concentrations of RG7774 (0.1-500 µM) and added directly to the incubation medium (250 µL). Control experiments was carried out in the presence of the FAAH inhibitor, URB-597 (100 nM).

[9] = target: T5, Mouse FAAH (Mus musculus, UniProt O08914); test: Mouse FAAH assay (brain); format: biochemical; details: positive control 100 nM; read-out: Mean ± SEM % inhibition of control, Mouse FAAH
T5 construct: Mouse brain was homogenized in 50 mM Tris-HCl (pH 7.4); from tissue; host or cells: mouse brain, 1000 g supernatant
Procedure: as §3

[10] = test system: Jurkat cells; test: xCELLigence impedance assay in Jurkat cells; format: cell-based, human; details: co-treatment with RG7774
Procedure: Background impedance was determined in 96-well RTCA E-plates (Agilent Technologies, Santa Clara, CA, United States) coated with 150 μg/mL fibronectin/H2O (Sigma-Aldrich, St. Louis, MO, United States) and containing 50 μL RPMI 1640 assay medium (Fisher Scientific, Schwerte, Germany) 31870) with 10% fetal calf serum (FCS). Jurkat cells (200,000 cells per well) were seeded in 100 μL of growth medium, allowed to settle for 30 min at RT, and cultured overnight at 37°C and 5% CO2. Dose-response curves were generated by adding increasing concentrations of RG7774 to seeded Jurkat cells and performing impedance measurements (xCelligence RTCA M, Agilent Technologies, Santa Clara, CA, United States) at baseline and 1 h after treatment. Displacement experiments were performed by incubating seeded Jurkat cells with 10 μM SR144528, a CB2R-selective antagonist (Tocris Bioscience, Bristol, United Kingdom) or 10 μM RO6851228 (a CB2R-selective inverse agonist; in-house synthesis) in assay medium overnight at 37°C and 5% CO2. Cells were re-treated with 10 μM SR144528 or […] for 1 h and stimulated with 233 nM RG7774 in assay medium. […] Displacement data are presented as the percentage of the maximal normalized cell index determined after antagonist/inverse agonist treatment relative to the percentage of the normalized cell index at 109 nM RG7774 treatment.

T2 sequence (P09917 whole entry): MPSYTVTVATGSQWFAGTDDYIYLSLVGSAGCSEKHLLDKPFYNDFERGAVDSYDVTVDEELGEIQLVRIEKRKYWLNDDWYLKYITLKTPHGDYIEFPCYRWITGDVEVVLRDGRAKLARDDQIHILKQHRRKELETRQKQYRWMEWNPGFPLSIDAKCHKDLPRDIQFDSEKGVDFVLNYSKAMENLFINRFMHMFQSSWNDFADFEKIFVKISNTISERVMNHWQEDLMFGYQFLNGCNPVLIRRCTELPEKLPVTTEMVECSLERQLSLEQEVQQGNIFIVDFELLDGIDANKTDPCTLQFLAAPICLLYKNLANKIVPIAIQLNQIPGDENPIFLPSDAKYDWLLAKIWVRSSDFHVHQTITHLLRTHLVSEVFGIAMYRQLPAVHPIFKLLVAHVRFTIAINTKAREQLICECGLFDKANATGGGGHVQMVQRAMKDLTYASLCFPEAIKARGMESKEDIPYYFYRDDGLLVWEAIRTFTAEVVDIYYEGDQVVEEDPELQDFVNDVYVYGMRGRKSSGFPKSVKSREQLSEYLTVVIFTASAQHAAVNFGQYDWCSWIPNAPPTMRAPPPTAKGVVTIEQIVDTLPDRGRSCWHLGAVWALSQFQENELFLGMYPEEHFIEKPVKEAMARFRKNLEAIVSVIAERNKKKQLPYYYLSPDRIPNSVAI
T3 sequence (P18054 whole entry): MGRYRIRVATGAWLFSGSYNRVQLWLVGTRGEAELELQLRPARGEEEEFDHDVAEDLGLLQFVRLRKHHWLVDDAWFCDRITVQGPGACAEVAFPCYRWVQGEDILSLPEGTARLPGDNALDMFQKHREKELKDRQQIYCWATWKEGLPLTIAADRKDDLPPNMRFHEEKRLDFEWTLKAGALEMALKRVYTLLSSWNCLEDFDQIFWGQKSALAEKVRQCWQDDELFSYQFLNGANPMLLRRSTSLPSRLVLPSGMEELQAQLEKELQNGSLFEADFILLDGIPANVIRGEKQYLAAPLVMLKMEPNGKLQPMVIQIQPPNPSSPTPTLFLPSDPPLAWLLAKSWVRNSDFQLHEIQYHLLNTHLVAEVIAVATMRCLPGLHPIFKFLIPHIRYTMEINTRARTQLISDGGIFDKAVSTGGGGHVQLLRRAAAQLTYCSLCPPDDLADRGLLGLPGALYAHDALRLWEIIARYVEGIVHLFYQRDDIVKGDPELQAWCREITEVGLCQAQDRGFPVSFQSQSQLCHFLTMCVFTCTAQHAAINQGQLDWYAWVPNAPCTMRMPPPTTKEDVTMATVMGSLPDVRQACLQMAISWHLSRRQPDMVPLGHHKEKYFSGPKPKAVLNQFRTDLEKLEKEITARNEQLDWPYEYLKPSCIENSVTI
T5 sequence (O08914 whole entry): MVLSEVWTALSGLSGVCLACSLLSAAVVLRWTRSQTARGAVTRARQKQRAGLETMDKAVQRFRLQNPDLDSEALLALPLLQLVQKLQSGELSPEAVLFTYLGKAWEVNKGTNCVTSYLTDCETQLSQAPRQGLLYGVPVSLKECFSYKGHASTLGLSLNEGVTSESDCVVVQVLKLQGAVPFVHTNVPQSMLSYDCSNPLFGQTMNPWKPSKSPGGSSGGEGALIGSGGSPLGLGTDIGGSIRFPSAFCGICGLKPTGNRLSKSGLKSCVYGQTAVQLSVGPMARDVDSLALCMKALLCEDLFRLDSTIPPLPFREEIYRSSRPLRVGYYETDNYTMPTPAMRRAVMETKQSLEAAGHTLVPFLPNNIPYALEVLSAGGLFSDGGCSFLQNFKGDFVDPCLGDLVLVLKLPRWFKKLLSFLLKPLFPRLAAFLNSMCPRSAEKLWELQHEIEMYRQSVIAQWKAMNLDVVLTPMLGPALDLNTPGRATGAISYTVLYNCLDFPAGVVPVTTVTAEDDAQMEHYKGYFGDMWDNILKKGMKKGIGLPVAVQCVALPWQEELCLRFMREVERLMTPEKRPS
Sequence of Mouse CB1R (P47746 whole entry): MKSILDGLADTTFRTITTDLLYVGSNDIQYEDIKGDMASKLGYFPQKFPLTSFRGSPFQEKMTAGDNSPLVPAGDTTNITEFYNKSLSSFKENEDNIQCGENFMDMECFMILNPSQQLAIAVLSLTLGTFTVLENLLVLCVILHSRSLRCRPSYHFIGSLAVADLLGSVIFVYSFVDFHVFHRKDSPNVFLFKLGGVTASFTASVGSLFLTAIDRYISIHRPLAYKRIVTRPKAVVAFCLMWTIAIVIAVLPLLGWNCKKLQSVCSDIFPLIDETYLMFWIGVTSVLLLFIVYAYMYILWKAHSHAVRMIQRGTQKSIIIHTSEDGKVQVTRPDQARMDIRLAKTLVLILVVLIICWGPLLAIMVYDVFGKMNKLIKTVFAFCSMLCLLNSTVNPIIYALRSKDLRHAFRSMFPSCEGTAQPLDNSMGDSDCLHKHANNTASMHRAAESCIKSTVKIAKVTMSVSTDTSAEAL
T4 sequence (O00519 whole entry): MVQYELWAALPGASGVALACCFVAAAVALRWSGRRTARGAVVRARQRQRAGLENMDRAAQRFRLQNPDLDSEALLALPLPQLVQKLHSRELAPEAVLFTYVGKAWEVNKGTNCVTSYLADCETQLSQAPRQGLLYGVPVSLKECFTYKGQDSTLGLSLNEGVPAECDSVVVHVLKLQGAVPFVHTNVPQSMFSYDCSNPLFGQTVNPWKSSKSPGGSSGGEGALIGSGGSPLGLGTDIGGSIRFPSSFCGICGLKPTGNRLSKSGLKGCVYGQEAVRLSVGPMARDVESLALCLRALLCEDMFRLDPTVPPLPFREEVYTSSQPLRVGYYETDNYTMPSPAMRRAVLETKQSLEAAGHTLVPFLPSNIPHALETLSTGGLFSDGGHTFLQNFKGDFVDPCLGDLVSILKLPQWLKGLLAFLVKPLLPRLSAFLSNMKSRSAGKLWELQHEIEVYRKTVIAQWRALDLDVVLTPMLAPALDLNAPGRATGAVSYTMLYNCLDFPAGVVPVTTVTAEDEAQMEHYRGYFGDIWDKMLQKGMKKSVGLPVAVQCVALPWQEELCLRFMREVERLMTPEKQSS
T1 sequence (Q99685 whole entry): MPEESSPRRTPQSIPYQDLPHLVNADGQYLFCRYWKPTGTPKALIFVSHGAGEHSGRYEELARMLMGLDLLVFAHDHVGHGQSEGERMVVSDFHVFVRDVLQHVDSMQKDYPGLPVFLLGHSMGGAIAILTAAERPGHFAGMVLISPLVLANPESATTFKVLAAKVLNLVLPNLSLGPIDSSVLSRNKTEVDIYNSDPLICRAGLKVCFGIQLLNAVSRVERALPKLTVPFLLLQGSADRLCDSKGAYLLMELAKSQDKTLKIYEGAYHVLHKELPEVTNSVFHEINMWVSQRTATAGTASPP

Question: How did the inhibition at 0.1 µM [1] turn out when `CCCCCCC(C)(C)c1ccc([C@@H]2C[C@H](O)CC[C@H]2CCCO)c(O)c1` [CP-55940, reference compound] was run?
Answer: 91.5 ± 2.6%

Question: Which “Mean ± SEM % inhibition of control, Human DAGL” value [2] does the source give for `CC(C)(C)OC(=O)N1CCN(C(=O)n2cc(-c3ccc(OC(F)(F)F)cc3)nn2)C(c2ccccc2)C1` (stereo not shown) [DO53, reference compound] here?
Answer: 103.1 ± 13.2%

Question: What about the “Mean ± SEM % inhibition of control, Mouse DAGL” value [3] of the same molecule?
Answer: 60.4 ± 4.3%

Question: With `O=C(Oc1ccc([N+](=O)[O-])cc1)N1CCC(C(O)(c2ccc3c(c2)OCO3)c2ccc3c(c2)OCO3)CC1` [JZL-184, reference compound] as the molecule, how does the “Mean ± SEM % inhibition of control, Human MAGL” value [4] read?
Answer: 84.3 ± 3.4%

Question: Which results are given for `CC(Cc1ccc(O)c(O)c1)C(C)Cc1ccc(O)c(O)c1` (stereo not shown) [NDGA, reference compound]?
Answer: Mean ± SEM % inhibition of control, Human 5-LOX [5]: 126.6 ± 2.4%; Mean ± SEM % inhibition of control, Human 12-LOX [6]: 84.6 ± 0.7%

Question: For `CCCCCCCC/C=C\CCCCCCCC(=O)N[C@H](CO)Cc1ccc(O)cc1` [OMDM-1, reference compound], which “Mean ± SEM % inhibition of control, Human EMT” value [7] is on record?
Answer: 95.5 ± 0.4%

Question: How did the inhibition at 0.1 µM [8] turn out when `NC(=O)c1cccc(-c2cccc(OC(=O)NC3CCCCC3)c2)c1` [URB-597, reference compound] was run?
Answer: 92.8 ± 6.1%

Question: What about the inhibition at 0.1 µM [9] of the same molecule?
Answer: 83.2 ± 4.6%

Question: With SR144528 [reference compound] as the molecule, how does the “inhibition of RG7774-induced increase in maximal normalized cell index” value [10] read?
Answer: fully inhibited
